What was measured:
[1] = test system: Phakopsora pachyrhizi; assay: Phakopsora pachyrhizi test on soybean, preventive, greenhouse; type: in vivo; conditions: preventive spray on soybean, inoculated one day after treatment, read-out: control (efficacy, disease severity) compared to the untreated check
In short: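 Preventive protocol: plants inoculated with a 2×10^5 P. pachyrhizi conidial suspension one day after spray application at the stated rate, then incubated at 22-24 °C and 80-90% RH. Compound was applied from 2% DMSO/acetone diluted in emulsified water.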

[2] = test system: Botrytis cinerea; assay: Botrytis cinerea test on tomato, preventive, greenhouse; type: in vivo; conditions: preventive spray on bean/chili plants (heading: tomato), inoculated one day after treatment, read-out: control (efficacy, disease severity) compared to the untreated check
[3] = test system: Colletotrichum capsici; assay: Colletotrichum capsici (anthracnose) mycelial radial growth on potato dextrose agar; type: cell-based; conditions: Colletotrichum truncatum, 168 h, 25° C., seven days, read-out: control compared to the untreated check
In short: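 Compounds in 0.3% DMSO were mixed into potato dextrose agar, and each plate was seeded with a 5 mm mycelial disc from an actively growing culture. Plates were incubated at 25° C and 60% relative humidity for seven days. Radial growth was compared with untreated control.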

[4] = test system: Alternaria solani; assay: Alternaria solani (early blight of tomato/potato) mycelial radial growth on potato dextrose agar; type: cell-based; conditions: 168 h, 25° C., seven days, read-out: control compared to the untreated check
Protocol: (§1) The compounds were dissolved in 0.3% dimethyl sulfoxide and then added to potato dextrose agar medium just prior to dispensing it into petri dishes. 5 mL medium, with the compound in the desired concentration, was dispensed into 60 mm sterile petri-plates. After solidification, each plate was seeded with a 5 mm size mycelial disc taken from the periphery of an actively growing virulent culture plate. The plates were incubated in growth chambers at 25° C. temperature and 60% relative humidity for seven days and the radial growth was measured and compared to the one of the untreated control.

[5] = test system: Pyricularia oryzae; assay: microbe, parasite or virus in culture; type: cell-based; conditions: 168 h, read-out: control compared to the untreated check
[6] = test system: Parastagonospora nodorum; assay: Parastagonospora nodorum (PARANO) spore growth inhibition in liquid medium, 96-well microtiter plate, OD 600; type: cell-based; conditions: spore suspension in PDB liquid medium, 18° C., 5-6 days, OD at 600, read-out: control compared to the untreated check
In short: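 Read-out is percent growth inhibition from OD at 600 after 5-6 days at 18° C. Compounds, dissolved in DMSO, were diluted in potato dextrose broth and combined in equal volume with a 10^5 spores/ml suspension of PARANO.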

[7] = test system: Phytophthora infestans; assay: whole plant or invertebrate; type: in vivo, Phytophthora infestans on tomato; conditions: in Solanum lycopersicum, read-out: control (efficacy, disease severity) compared to the untreated check
[8] = test system: Phytophthora infestans; assay: microbe, parasite or virus in culture; type: cell-based; conditions: 168 h, read-out: control compared to the untreated check
[9] = test system: Botrytis cinerea; assay: Botrytis cinerea liq. (BOTRCI) spore growth inhibition in liquid medium, 96-well microtiter plate, OD 405 nm; type: cell-based; conditions: spore suspension in YBA liquid medium, 22° C., 5-6 days, OD at 405 nm, read-out: control compared to the untreated check
In short: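 Spore suspension of B. cinerea (10^4 spores/ml) in YBA liquid medium mixed 1:1 with compound diluted from DMSO. Incubated at 22° C. for 5-6 days. Growth read as OD 405 nm; percent inhibition derived from treatment, untreated-control and blank readings.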

[10] = test system: Alternaria solani; assay: Alternaria solani test in tomato, preventive, greenhouse; type: in vivo; conditions: preventive spray on tomato, inoculated one day after treatment, read-out: control (efficacy, disease severity) compared to the untreated check
Protocol: The respective compound was dissolved in 2% dimethyl sulfoxide/acetone and then mixed with water containing an emulsifier to the calibrated spray volume of 30 mL. Each spray solution was poured into a spray bottle for further application.
To test the preventive activity of a compound, healthy young tomato plants, raised in the greenhouse, were sprayed with the active compound preparation at the stated application rate inside the spray cabinets using hollow cone nozzles. One day after treatment, the plants were inoculated with a spore suspension containing 0.24×10^6 Alternaria solani inoculum. The inoculated plants were then kept in a greenhouse chamber at 22-24° C. temperature and 90-95% relative humidity for disease expression.
A visual assessment of the compound's performance was carried out by rating the disease severity (0 100% scale) on treated plants 3, 7, 10 and 15 days after application. Efficacy (% control) of the compound was calculated by comparing the disease rating in the treatment with the one of the untreated control. The treated plants were also assessed for plant damage by recording symptoms like necrosis, chlorosis and stunting.

[11] = test system: Venturia Inequalis; assay: Venturia inequalis (VENTIN) spore growth inhibition in liquid medium, 96-well microtiter plate, OD 600; type: cell-based; conditions: spore suspension in PDB liquid medium, 18° C., 15-18 days, OD at 600, read-out: control compared to the untreated check
Protocol: Potato dextrose (PDB) liquid medium containing a VENTIN (10^5 spores/ml) spore suspension was prepared. For the inhibition assay, each test compound was solved in dimethyl sulfoxide. 100 μl of the test compound in media-solution was added to a 96-well microtiter plate, consequently, the same volume (100 μl) of spore suspension was added to the well making the final test concentrations and the treated plate was incubated at 18° C. for 15-18 days. The growth inhibition was evaluated by measuring the OD at 600. Percent inhibition was calculated with the below formula: […]

[12] = test system: Botrytis cinerea; assay: Botrytis cinerea (gray mold) mycelial radial growth on potato dextrose agar; type: cell-based; conditions: 168 h, 22° C., seven days, read-out: control compared to the untreated check
Protocol: as §1, with “22°” for “25°”, “90%” for “60%”

Cn1ccc2cc(C(=O)NC(C)(C)Cc3ccccc3)cnc21 [Compound 1, 1-methyl-N-(2-methyl-1-phenylpropan-2-yl)-1H-pyrrolo[2,3-b]pyridine-5-carboxamide]
≥ 70%: pest or weed control at 500 ppm [1] | pest or weed control at 500 ppm [2] | inhibition of growth at 300 ppm [3] | inhibition of growth at 300 ppm [4] | inhibition of growth at 300 ppm [5]

Cn1ccc2cc(C(=O)NC(C)(C)C(C)(C)c3ccccc3)cnc21 [Compound 5, N-(2,3-dimethyl-3-phenylbutan-2-yl)-1-methyl-1H-pyrrolo[2,3-b]pyridine-5-carboxamide]
≥ 70%: pest or weed control at 500 ppm [1] | inhibition of growth at 300 ppm [4] | inhibition of growth at 300 ppm [6]

CC(c1ccccc1Cl)C(C)(C)NC(=O)c1cnc2c(ccn2C)c1 (stereo not shown) [Compound 7, N-(3-(2-chlorophenyl)-2-methylbutan-2-yl)-1-methyl-1H-pyrrolo[2,3-b]pyridine-5-carboxamide]
≥ 70%: inhibition of growth at 300 ppm [4] | inhibition of growth at 300 ppm [6] | inhibition of growth at 300 ppm [5]

Cn1ccc2cc(C(=O)NC3(Cc4ccccc4)CCCC3)cnc21 [Compound 10, N-(1-benzylcyclopentyl)-1-methyl-1H-pyrrolo[2,3-b]pyridine-5-carboxamide]
≥ 70%: pest or weed control at 500 ppm [1] | inhibition of growth at 300 ppm [3] | inhibition of growth at 300 ppm [4] | inhibition of growth at 300 ppm [6] | pest or weed control at 500 ppm [7] | inhibition of growth at 300 ppm [8]

Cn1ccc2cc(C(=O)NC3(Cc4ccccc4)CCCCC3)cnc21 [Compound 11, N-(1-benzylcyclohexyl)-1-methyl-1H-pyrrolo[2,3-b]pyridine-5-carboxamide]
≥ 70%: inhibition of growth at 300 ppm [3] | inhibition of growth at 300 ppm [4] | inhibition of growth at 300 ppm [6] | inhibition of growth at 300 ppm [5]

Cn1ccc2cc(C(=O)NC3(Cc4cccc(Cl)c4)CCCCC3)cnc21 [Compound 12, N-(1-(3-chlorobenzyl)cyclohexyl)-1-methyl-1H-pyrrolo[2,3-b]pyridine-5-carboxamide]
≥ 70%: inhibition of growth at 300 ppm [3] | inhibition of growth at 300 ppm [4] | inhibition of growth at 300 ppm [5]

Cn1ccc2cc(C(=O)NC(C)(C)Cc3ccccc3F)cnc21 [Compound 13, N-(1-(2-fluorophenyl)-2-methylpropan-2-yl)-1-methyl-1H-pyrrolo[2,3-b]pyridine-5-carboxamide]
≥ 70%: inhibition of growth at 300 ppm [3] | inhibition of growth at 300 ppm [9] | inhibition of growth at 300 ppm [4] | inhibition of growth at 300 ppm [6] | inhibition of growth at 300 ppm [8] | inhibition of growth at 300 ppm [5]

Cn1ccc2cc(C(=O)NC(C)(C)Cc3cccc(C(F)(F)F)c3)cnc21 [Compound 14, 1-methyl-N-(2-methyl-1-(3-(trifluoromethyl)phenyl)propan-2-yl)-1H-pyrrolo[2,3-b]pyridine-5-carboxamide]
≥ 70%: inhibition of growth at 300 ppm [9] | inhibition of growth at 300 ppm [4]

Cn1ccc2cc(C(=O)NC(C)(C)Cc3cc(F)cc(F)c3)cnc21 [Compound 15, N-(1-(3,5-difluorophenyl)-2-methylpropan-2-yl)-1-methyl-1H-pyrrolo[2,3-b]pyridine-5-carboxamide]
≥ 70%: pest or weed control at 500 ppm [10]

Cn1ccc2cc(C(=O)NC(C)(C)Cc3ccccc3Br)cnc21 [Compound 26]
≥ 70%: pest or weed control at 500 ppm [1] | inhibition of growth at 300 ppm [6] | pest or weed control at 500 ppm [10]

CC(C)CC(C)(Cc1ccccc1)NC(=O)c1cnc2[nH]ccc2c1 (stereo not shown) [Compound 28, N-(2,4-dimethyl-1-phenylpentan-2-yl)-1H-pyrrolo[2,3-b] pyridine-5-carboxamide]
≥ 70%: pest or weed control at 500 ppm [1] | inhibition of growth at 300 ppm [3] | inhibition of growth at 300 ppm [4] | inhibition of growth at 300 ppm [6] | inhibition of growth at 300 ppm [8]

Cn1ccc2cc(C(=O)NC(C)(C)Cc3ccc(Cl)cc3F)cnc21 [Compound 47, N-(1-(4-chloro-2-fluorophenyl)-2-methylpropan-2-yl)-1-methyl-1H-pyrrolo[2,3-b]pyridine-5-carboxamide]
≥ 70%: pest or weed control at 500 ppm [1] | inhibition of growth at 300 ppm [4] | inhibition of growth at 300 ppm [6] | pest or weed control at 500 ppm [7] | inhibition of growth at 300 ppm [11] | inhibition of growth at 300 ppm [5]

CC(C)CC(C)(Cc1ccccc1)NC(=O)c1cnc2c(c1)c(Br)cn2C (stereo not shown) [Compound 51, 3-bromo-N-(2,4-dimethyl-1-phenylpentan-2-yl)-1-methyl-1H-pyrrolo[2,3-b]pyridine-5-carboxamide]
≥ 70%: pest or weed control at 500 ppm [1] | pest or weed control at 500 ppm [10] | inhibition of growth at 300 ppm [5]

Cn1cc(Cl)c2cc(C(=O)NC(C)(C)Cc3ccccc3F)cnc21 [Compound 59, 3-chloro-N-(1-(2-fluorophenyl)-2-methylpropan-2-yl)-1-methyl-1H-pyrrolo[2,3-b]pyridine-5-carboxamide]
≥ 70%: pest or weed control at 500 ppm [1] | pest or weed control at 500 ppm [10] | inhibition of growth at 300 ppm [5]

CC(CCc1ccccc1)NC(=O)c1cnc2c(ccn2C)c1 (stereo not shown) [Compound 75, 1-methyl-N-(4-phenylbutan-2-yl)-1H-pyrrolo[2,3-b]pyridine-5-carboxamide]
≥ 70%: pest or weed control at 500 ppm [1] | pest or weed control at 500 ppm [2] | inhibition of growth at 300 ppm [3] | inhibition of growth at 300 ppm [9] | inhibition of growth at 300 ppm [6] | pest or weed control at 500 ppm [7] | inhibition of growth at 300 ppm [12] | inhibition of growth at 300 ppm [11]

Cn1cc(C2CC2)c2cc(C(=O)NC(C)(C)Cc3ccccc3Cl)cnc21 [Compound 85, N-(1-(2-chlorophenyl)-2-methylpropan-2-yl)-3-cyclopropyl-1-methyl-1H-pyrrolo[2,3-b]pyridine-5-carboxamide]
≥ 70%: pest or weed control at 500 ppm [1] | inhibition of growth at 300 ppm [4] | inhibition of growth at 300 ppm [6] | pest or weed control at 500 ppm [7] | inhibition of growth at 300 ppm [5]

C=C(C)CC(C)(Cc1ccccc1F)NC(=O)c1cnc2cc[nH]c2c1 (stereo not shown) [Compound 144, N-(1-(2-fluorophenyl)-2,4-dimethylpent-4-en-2-yl)-1H-pyrrolo[3,2-b] pyridine-6-carboxamide]
≥ 70%: pest or weed control at 500 ppm [1] | pest or weed control at 500 ppm [2] | inhibition of growth at 300 ppm [3] | inhibition of growth at 300 ppm [9] | inhibition of growth at 300 ppm [4] | inhibition of growth at 300 ppm [6] | pest or weed control at 500 ppm [7] | inhibition of growth at 300 ppm [12] | inhibition of growth at 300 ppm [8] | inhibition of growth at 300 ppm [11]
